Measurements from PMC6272295, “In Vitro Neuroprotective Activities of Compounds from Angelica shikokiana Makino” (Molecules, 2015).

Key:
[1] = system: neuro-2A cells; assay: Protection against Aβ25-35-induced neurotoxicity (MTT); assay type: cell-based, Mouse; settings: for Protection against Aβ25-35: summary Table 4; for neuroprotection against Aβ25-35 (in words): at the highest concentration (100 µM); as to Protection against Aβ25-35: key: +: Weak activity; ++: Strong activity
Experimental: Neuro-2A cell line was maintained in Eagle’s Minimum Essential medium supplemented with 10% fetal bovine serum, 1% of 100× antibiotic—antimitotic agents (containing penicillin and streptomycin) in a humid atmosphere of 5% (v/v) CO2 and 95% (v/v) air at 37 °C. Neuro-2A cells were plated in 96-well cell culture plates at a density of 3 × 10^4 cells/well for H2O2 and intracellular ROS assays and 2.5 × 10^3 cells/well for the Aβ25-35-assay.
Cell viability was determined by MTT reduction assay. Briefly, after treatment with isolated compounds, the media was replaced by fresh one after washing the cells with 100 µL PBS and 20 µL of MTT (5 mg/mL) was added to each well. After 4 h incubation at 37 °C, the state of cells was checked under microscope to confirm either cytotoxicity in H2O2 and Aβ25-35 wells or protection in positive controls and isolated compounds ones. The supernatants were aspirated carefully, and 150 µL of DMSO was added to each well to dissolve the dark blue formazan crystals. The absorbance was measured using a microplate reader at 570 nm.
Similarly, the concentration of Aβ25-35 that decreased cell viability to about 50% was determined. […] So, the cells were incubated with different concentrations of the isolated compounds (6.25, 12.5, 25, 50 and 100 µM) and EGCG as a positive control for 3 h followed by Aβ25-35 treatment for 72 h.

[2] = molecular target: T1, AChE from Electrophorus electricus (Electrophorus electricus, UniProt O42275); assay: biochemical; settings: for IC50: Ellman's method, read-out: IC50 in the AChEI assay
T1 construct: purchased Sigma (St. Louis, MO, USA)
T1 sequence (O42275 24-633): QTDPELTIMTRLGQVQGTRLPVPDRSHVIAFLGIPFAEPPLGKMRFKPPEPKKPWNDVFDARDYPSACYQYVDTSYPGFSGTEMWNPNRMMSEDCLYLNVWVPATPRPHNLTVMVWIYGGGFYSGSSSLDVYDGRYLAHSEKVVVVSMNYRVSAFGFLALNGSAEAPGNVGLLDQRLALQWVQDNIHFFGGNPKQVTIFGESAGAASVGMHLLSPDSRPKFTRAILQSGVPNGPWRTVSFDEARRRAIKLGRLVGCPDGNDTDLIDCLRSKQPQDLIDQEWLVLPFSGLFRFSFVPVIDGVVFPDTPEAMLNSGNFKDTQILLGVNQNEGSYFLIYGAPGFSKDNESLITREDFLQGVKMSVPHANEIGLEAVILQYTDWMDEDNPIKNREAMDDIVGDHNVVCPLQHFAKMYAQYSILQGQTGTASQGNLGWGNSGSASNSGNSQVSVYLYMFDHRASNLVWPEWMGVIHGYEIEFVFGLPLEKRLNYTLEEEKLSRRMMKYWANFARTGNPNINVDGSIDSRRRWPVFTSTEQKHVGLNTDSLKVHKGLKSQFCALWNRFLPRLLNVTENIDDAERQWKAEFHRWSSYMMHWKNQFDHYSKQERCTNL
Experimental: AChEI activity was measured using Ellman’s method. AChE hydrolyzes the substrate ACTI into acetate and thiocholine. In a neutral and alkaline medium; thiocholine reacts with DTNB to give yellow colored 2-nitro-5-thiobenzoate, which can be detected spectrophotometrically at 405 nm. Briefly, in a 96-well plate, 25 µL of 15 mM ACTI, 125 µL of 3 mM DTNB in buffer B (50 mM Tris HCl, pH = 8, 0.1 M NaCl, 0.02 M MgCl2·6H2O), 50 µL of buffer A (50 mM Tris-HCl, PH 8, 0.1% BSA) and 25 µL of tested sample (dissolved in 25% DMSO) were mixed, and the absorbance was measured using a microplate reader (Biotek, Winooski, VT, USA) at 405 nm every 16 s ten times. Then, 25 µL of AChE (0.25 U/mL in buffer A) was added and the absorbance was measured ten times every 16 s. A solution of 25% DMSO was used as a negative control. Absorbance was plotted against time and enzyme activity was calculated from the slope of the line so obtained and expressed as a percentage compared to an assay using a buffer without any inhibitor. Fractions were tested at 400 µg/mL. To avoid any increase in absorbance due to the color of the compounds or spontaneous hydrolysis of the substrate, the absorbance before addition of the enzyme was subtracted from the absorbance after adding the enzyme.
IC50 values of isolated compounds in AChEI and scavenging of hydroxyl radical assays were calculated using Probit Analysis (SPSS Version 16.0 for Windows, SPSS Inc., Chicago, IL, USA) for five different concentrations in three independent experiments. Cell viability was expressed as a percentage of MTT reduction, assuming that the viability of cells treated with 1% DMSO as a negative control was 100%. Figures were built in Microsoft Excel 2010. All values are the mean ± SD of three independent experiments. Data were analyzed for statistical significance using one-way ANOVA, followed by Dunnet’s test as a post-hoc test with GraphPad Prism 5.0 software for Windows (Inc., San Diego, CA, USA).

[3] = molecular target: T2, Aβ25-35 (Homo sapiens, UniProt P05067); assay: Thioflavin T assay of Aβ25-35 aggregation; assay type: biochemical; settings: for effect on Th-T fluorescence (in words): 25-100 µM; for Decrease of ThT Fluorescence: summary Table 4; as to Decrease of ThT Fluorescence: key: +: Weak activity; ++: Strong activity
T2 construct: Aβ25-35 (25 µM) freshly prepared in PBS; purchased Sigma (St. Louis, MO, USA)
Experimental: Thioflavin T (ThT), abenzothiazole salt, is used to quantify misfolded protein aggregates and amyloid peptides. ThT is a non-fluorescent dye which, when it binds to amyloid rich aggregates, produces a fluorescent signal proportional to the quantity of amyloid aggregation. Aβ25-35 (25 µM) freshly prepared in PBS (50 mM, pH = 7.4) was incubated at 37 °C with or without different concentrations (100, 50, 25 µM) of isolated compounds at 37 °C and shaken at 300 rpm for 3 h. One hundred µL of each incubated sample was transferred to a 96-well plate, and five µM ThT was added. The ThT fluorescence was measured over 180 min at 10-min intervals at emission λ at 485 nm; and excitation λ at 442 nm using FlexStation 3 Microplate Reader (Molecular Devices, LLC, Sunnyvale, CA, USA), and data were managed by SoftMax Pro® 5.4.1 software. The samples were constantly shaken every 60 sec during the incubation. 1% DMSO and different concentrations of ECCG were taken as negative and positive controls, respectively. The area under the curve (AUC) was taken as indicative of fluorescence intensity. Fluorescence of samples and ThT without Aβ25-35 (sample blank) was detected and subtracted from the final AUC to prevent any interference.

Structure (SMILES): CC(=O)OC1c2c(ccc3ccc(=O)oc23)OC(C)(C)C1OC(=O)C(C)(O)C(C)O (centres unmarked) [Hyuganin E (6), hyuganin E]
- Protection against Aβ25-35 [1]: ++
- IC50 [2]: 286.5 ± 2.1 µM
- effect on Th-T fluorescence (in words) [3]: decreased Th-T fluorescence in a dose-dependent manner
- Decrease of ThT Fluorescence [3]: ++

Structure (SMILES): O=c1c(O)c(-c2ccc(O)cc2)oc2cc(O)cc(O)c12 [Kaempferol (8), kaempferol]
- neuroprotection against Aβ25-35 (in words) [1]: significant neuroprotection (p < 0.05)
- Protection against Aβ25-35 [1]: +
- inhibition at 250 µM ([2]; at 250 µM): 30%
- effect on Th-T fluorescence (in words) [3]: weak activity
- Decrease of ThT Fluorescence [3]: +

Structure (SMILES): O=c1c(OC2OC(CO)C(O)C(O)C2O)c(-c2ccc(O)cc2)oc2cc(O)cc(O)c12 (centres unmarked) [Kaempferol-3-O-glucoside (13), kaempferol-3-O-glucoside]
- neuroprotection against Aβ25-35 (in words) [1]: significant neuroprotection (p < 0.05)
- Protection against Aβ25-35 [1]: +
- IC50 [2]: 80.4 ± 5.1 µM
- effect on Th-T fluorescence (in words) [3]: weak activity
- Decrease of ThT Fluorescence [3]: +
